# Assays:
# [1] = tested on: RS4; 11 cell line; assay: CellTiter-Glo Luminescent Cell Viability Assay, cell growth inhibition; assay type: cell-based; conditions: Homo sapiens, 96 h, 4 days
# Procedure: (§1) Cell growth inhibitory activity of representative MDM2 protein degraders was determined using CellTiter-Glo® Luminescent Cell Viability Assay. Cells were seeded in 384-well white opaque cell culture plates at a density of 2,000 cells/well with serially diluted compounds and incubated at 37° C. in an atmosphere of 95% air and 5% CO2 for 4 days. Cell viability was determined using the CellTiter-Glo® Luminescent Cell Viability Assay Kit (Promega, Madison, WI) according to the manufacture's instruction. Briefly, a volume of CellTiter-Glo® Reagent equal to the volume of cell culture medium was added to each well, and then the plates were incubated at room temperature for 10-20 minutes. The luminescent signal was measured using a Tecan Infinite M1000 multimode microplate reader (Tecan, Morrisville, NC). The half maximal inhibitory concentration (IC50) was calculated using the GraphPad Prism 5 software (GraphPad Software, La Jolla, CA). Cpd. […] The structure of Cpd.
# [2] = tested on: MV4-11 cell line; assay: as above; assay type: cell-based; conditions: Homo sapiens, 96 h, 4 days
# Procedure: as §1
SMILES,IC50 [1] [nM],IC50 [2] [nM]
"O=C1CCC(N2C(=O)c3cccc(NCCCCCCNC(=O)c4ccc(NC(=O)[C@@H]5NC6(CCCCC6)[C@@]6(C(=O)Nc7cc(Cl)ccc76)[C@H]5c5cccc(Cl)c5F)cc4)c3C2=O)C(=O)N1 (stereo partly drawn) [Cpd. No. 11, (3′R,4'S,5′R)-6″-chloro-4′-(3-chloro-2-fluorophenyl)-N-(4-((6-((2-(2,6-dioxopiperidin-3-yl)-1,3-dioxoisoindolin-4-yl)amino)hexyl)carbamoyl)phenyl)-2″-oxodispiro[cyclohexane-1,2′-pyrrolidine-3′,3″-indoline]-5′-carboxamide]",30,42
"O=C1CCC(N2C(=O)c3cccc(NCCOCCOCCNC(=O)c4ccc(NC(=O)[C@@H]5NC6(CCCCC6)[C@@]6(C(=O)Nc7cc(Cl)ccc76)[C@H]5c5cccc(Cl)c5F)nc4)c3C2=O)C(=O)N1 (stereo partly drawn) [Cpd. No. 24, (3′R,4'S,5′R)-6″-chloro-4′-(3-chloro-2-fluorophenyl)-N-(5-((2-(2-(2-((2-(2,6-dioxopiperidin-3-yl)-1,3-dioxoisoindolin-4-yl)amino)ethoxy)ethoxy)ethyl)carbamoyl)pyridin-2-yl)-2″-oxodispiro[cyclohexane-1,2′-pyrrolidine-3′,3″-indoline]-5′-carboxamide]",7,5
"O=C1CCC(N2C(=O)c3cccc(OCCOCCOCCOCCNC(=O)c4ccc(NC(=O)[C@@H]5NC6(CCCCC6)[C@@]6(C(=O)Nc7cc(Cl)ccc76)[C@H]5c5cccc(Cl)c5F)cc4)c3C2=O)C(=O)N1 (stereo partly drawn) [Cpd. No. 4, (3′R,4'S,5′R)-6″-chloro-4′-(3-chloro-2-fluorophenyl)-N-(4-((2-(2-(2-(2-((2-(2,6-dioxopiperidin-3-yl)-1,3-dioxoisoindolin-4-yl)oxy)ethoxy)ethoxy)ethoxy)ethyl)carbamoyl)phenyl)-2″-oxodispiro[cyclohexane-1,2′-pyrrolidine-3′,3″-indoline]-5′-carboxamide]",14,6
"CCN1[C@@H](C(=O)NC23CCC(C(=O)NCCOCCOCCOCCOCC(=O)N[C@H](C(=O)N4C[C@H](O)C[C@H]4C(=O)NCc4ccc(-c5scnc5C)cc4)C(C)(C)C)(CC2)CC3)[C@H](c2cccc(Cl)c2F)[C@]2(C(=O)Nc3cc(Cl)ccc32)C12CCCCC2 [Cpd. No. 48, (3′R,4'S,5′R)-6″-chloro-4′-(3-chloro-2-fluorophenyl)-1′-ethyl-N-(4-(((S)-16-((2S,4R)-4-hydroxy-2-((4-(4-methylthiazol-5-yl)benzyl)carbamoyl)pyrrolidine-1-carbonyl)-17,17-dimethyl-14-oxo-3,6,9,12-tetraoxa-15-azaoctadecyl)carbamoyl)bicyclo[2.2.2]octan-1-yl)-2″-oxodispiro[cyclohexane-1,2′-pyrrolidine-3′,3″-indoline]-5′-carboxamide]",190,130
"O=C1CCC(N2Cc3c(NCCOCCNC(=O)c4ccc(NC(=O)[C@@H]5NC6(CCCCC6)[C@@]6(C(=O)Nc7cc(Cl)ccc76)[C@H]5c5cccc(Cl)c5F)cc4)cccc3C2=O)C(=O)N1 (stereo partly drawn) [Cpd. No. 20, (3′R,4'S,5′R)-6″-chloro-4′-(3-chloro-2-fluorophenyl)-N-(4-((2-(2-((2-(2,6-dioxopiperidin-3-yl)-1-oxoisoindolin-4-yl)amino)ethoxy)ethyl)carbamoyl)phenyl)-2″-oxodispiro[cyclohexane-1,2′-pyrrolidine-3′,3″-indoline]-5′-carboxamide]",8.5,7.6
"CCN1[C@@H](C(=O)NC23CCC(C(=O)NCCCOCCOCCOCCCNC(=O)COc4cccc5c4C(=O)N(C4CCC(=O)NC4=O)C5=O)(CC2)CC3)[C@H](c2cccc(Cl)c2F)[C@]2(C(=O)Nc3cc(Cl)ccc32)C12CCCCC2 (stereo partly drawn) [Cpd. No. 46, (3′R,4'S,5′R)-6″-chloro-4′-(3-chloro-2-fluorophenyl)-N-(4-((1-((2-(2,6-dioxopiperidin-3-yl)-1,3-dioxoisoindolin-4-yl)oxy)-2-oxo-7,10,13-trioxa-3-azahexadecan-16-yl)carbamoyl)bicyclo[2.2.2]octan-1-yl)-1′-ethyl-2″-oxodispiro[cyclohexane-1,2′-pyrrolidine-3′,3″-indoline]-5′-carboxamide]",20,20
"O=C1CCC(N2C(=O)c3cccc(NCCOCCOCCOCCOCCOCCOCCOCCNC(=O)c4ccc(NC(=O)[C@@H]5NC6(CCCCC6)[C@@]6(C(=O)Nc7cc(Cl)ccc76)[C@H]5c5cccc(Cl)c5F)cc4)c3C2=O)C(=O)N1 (stereo partly drawn) [Cpd. No. 16, (3′R,4'S,5′R)-6″-chloro-4′-(3-chloro-2-fluorophenyl)-N-(4-((23-((2-(2,6-dioxopiperidin-3-yl)-1,3-dioxoisoindolin-4-yl)amino)-3,6,9,12,15,18,21-heptaoxatricosyl)carbamoyl)phenyl)-2″-oxodispiro[cyclohexane-1,2′-pyrrolidine-3′,3″-indoline]-5′-carboxamide]",4.7,2.7
"O=C(COc1cccc2c1C(=O)N(C1CCC(=O)NC1=O)C2=O)NCCCCNC(=O)c1ccc(NC(=O)[C@@H]2NC3(CCCCC3)[C@@]3(C(=O)Nc4cc(Cl)ccc43)[C@H]2c2cccc(Cl)c2F)cc1 (stereo partly drawn) [Cpd. No. 1, (3′R,4'S,5′R)-6″-chloro-4′-(3-chloro-2-fluorophenyl)-N-(4-((4-(2-((2-(2,6-dioxopiperidin-3-yl)-1,3-dioxoisoindolin-4-yl)oxy)acetamido)butyl)carbamoyl)phenyl)-2″-oxodispiro[cyclohexane-1,2′-pyrrolidine-3′,3″-indoline]-5′-carboxamide]",233,416
"O=C(CNc1cccc2c1C(=O)N(C1CCC(=O)NC1=O)C2=O)NCCCOCCOCCOCCCNC(=O)c1ccc(NC(=O)[C@@H]2NC3(CCCCC3)[C@@]3(C(=O)Nc4cc(Cl)ccc43)[C@H]2c2cccc(Cl)c2F)cc1 (stereo partly drawn) [Cpd. No. 3, (3′R,4'S,5′R)-6″-chloro-4′-(3-chloro-2-fluorophenyl)-N-(4-((1-((2-(2,6-dioxopiperidin-3-yl)-1,3-dioxoisoindolin-4-yl)amino)-2-oxo-7,10,13-trioxa-3-azahexadecan-16-yl)carbamoyl)phenyl)-2″-oxodispiro[cyclohexane-1,2′-pyrrolidine-3′,3″-indoline]-5′-carboxamide]",22,5.6
"O=C1CCC(N2C(=O)c3cccc(NCCOCCNC(=O)c4ccc(NC(=O)[C@@H]5NC6(CCCCC6)[C@@]6(C(=O)Nc7cc(Cl)ccc76)[C@H]5c5cccc(Cl)c5F)cc4)c3C2=O)C(=O)N1 (stereo partly drawn) [Cpd. No. 13, (3′R,4'S,5′R)-6″-chloro-4′-(3-chloro-2-fluorophenyl)-N-(4-((2-(2-((2-(2,6-dioxopiperidin-3-yl)-1,3-dioxoisoindolin-4-yl)amino)ethoxy)ethyl)carbamoyl)phenyl)-2″-oxodispiro[cyclohexane-1,2′-pyrrolidine-3′,3″-indoline]-5′-carboxamide]",7.4,5.2
"O=C1CCC(N2Cc3c(NCc4cn(CCCNC(=O)c5ccc(NC(=O)[C@@H]6NC7(CCCCC7)[C@@]7(C(=O)Nc8cc(Cl)ccc87)[C@H]6c6cccc(Cl)c6F)cc5)cn4)cccc3C2=O)C(=O)N1 (stereo partly drawn) [Cpd. No. 39, (3′R,4'S,5′R)-6″-chloro-4′-(3-chloro-2-fluorophenyl)-N-(4-((3-(4-(((2-(2,6-dioxopiperidin-3-yl)-1-oxoisoindolin-4-yl)amino)methyl)-1H-imidazol-1-yl)propyl)carbamoyl)phenyl)-2″-oxodispiro[cyclohexane-1,2′-pyrrolidine-3′,3″-indoline]-5′-carboxamide]",1.5,
"O=C1CCC(N2C(=O)c3cccc(CCCOCCOCCNC(=O)c4ccc(NC(=O)[C@@H]5NC6(CCCCC6)[C@@]6(C(=O)Nc7cc(Cl)ccc76)[C@H]5c5cccc(Cl)c5F)cc4)c3C2=O)C(=O)N1 (stereo partly drawn) [Cpd. No. 36, (3′R,4'S,5′R)-6″-chloro-4′-(3-chloro-2-fluorophenyl)-N-(4-((2-(2-(3-(2-(2,6-dioxopiperidin-3-yl)-1,3-dioxoisoindolin-4-yl)propoxy)ethoxy)ethyl)carbamoyl)phenyl)-2″-oxodispiro[cyclohexane-1,2′-pyrrolidine-3′,3″-indoline]-5′-carboxamide]",37.4,
"O=C1CCC(N2C(=O)c3cccc(NCCCOCCOCCOCCCNC(=O)c4ccc(NC(=O)[C@@H]5NC6(CCCCC6)[C@@]6(C(=O)Nc7cc(Cl)ccc76)[C@H]5c5cccc(Cl)c5F)cn4)c3C2=O)C(=O)N1 (stereo partly drawn) [Cpd. No. 27, (3′R,4'S,5′R)-6″-chloro-4′-(3-chloro-2-fluorophenyl)-N-(6-((3-(2-(2-(3-((2-(2,6-dioxopiperidin-3-yl)-1,3-dioxoisoindolin-4-yl)amino)propoxy)ethoxy)ethoxy)propyl)carbamoyl)pyridin-3-yl)-2″-oxodispiro[cyclohexane-1,2′-pyrrolidine-3′,3″-indoline]-5′-carboxamide]",4.6,
"COc1cc(C(=O)NCCOCCOCCNc2cccc3c2C(=O)N(C2CCC(=O)NC2=O)C3=O)ccc1NC(=O)[C@@H]1N[C@@H](CC(C)(C)C)[C@](C#N)(c2ccc(Cl)cc2F)[C@H]1c1cccc(Cl)c1F (stereo partly drawn) [Cpd. No. 57, (2R,3S,4R,5S)-3-(3-chloro-2-fluorophenyl)-4-(4-chloro-2-fluorophenyl)-4-cyano-N-(4-((2-(2-(2-((2-(2,6-dioxopiperidin-3-yl)-1,3-dioxoisoindolin-4-yl)amino)ethoxy)ethoxy)ethyl)carbamoyl)-2-methoxyphenyl)-5-neopentylpyrrolidine-2-carboxamide]",13,
